# Source: publication PMC3243724, “Recognition and Degradation of Plant Cell Wall Polysaccharides by Two Human Gut Symbionts” (PLoS Biology, 2011)
# Columns and labels:
# Experiment in all cases: isothermal titration calorimetry
# Type in all cases: binding
# [1] = molecular target: T1, BT0366 (arabinan HTCS sensor), periplasmic domain (Bacteroides thetaiotaomicron, UniProt Q8AAU8); details: 25 °C, HEPES pH 8.0; two-site fit, site 1 (stronger)
# T1 construct: gene BT_0366
# T1 sequence (Q8AAU8 24-810 limits assumed): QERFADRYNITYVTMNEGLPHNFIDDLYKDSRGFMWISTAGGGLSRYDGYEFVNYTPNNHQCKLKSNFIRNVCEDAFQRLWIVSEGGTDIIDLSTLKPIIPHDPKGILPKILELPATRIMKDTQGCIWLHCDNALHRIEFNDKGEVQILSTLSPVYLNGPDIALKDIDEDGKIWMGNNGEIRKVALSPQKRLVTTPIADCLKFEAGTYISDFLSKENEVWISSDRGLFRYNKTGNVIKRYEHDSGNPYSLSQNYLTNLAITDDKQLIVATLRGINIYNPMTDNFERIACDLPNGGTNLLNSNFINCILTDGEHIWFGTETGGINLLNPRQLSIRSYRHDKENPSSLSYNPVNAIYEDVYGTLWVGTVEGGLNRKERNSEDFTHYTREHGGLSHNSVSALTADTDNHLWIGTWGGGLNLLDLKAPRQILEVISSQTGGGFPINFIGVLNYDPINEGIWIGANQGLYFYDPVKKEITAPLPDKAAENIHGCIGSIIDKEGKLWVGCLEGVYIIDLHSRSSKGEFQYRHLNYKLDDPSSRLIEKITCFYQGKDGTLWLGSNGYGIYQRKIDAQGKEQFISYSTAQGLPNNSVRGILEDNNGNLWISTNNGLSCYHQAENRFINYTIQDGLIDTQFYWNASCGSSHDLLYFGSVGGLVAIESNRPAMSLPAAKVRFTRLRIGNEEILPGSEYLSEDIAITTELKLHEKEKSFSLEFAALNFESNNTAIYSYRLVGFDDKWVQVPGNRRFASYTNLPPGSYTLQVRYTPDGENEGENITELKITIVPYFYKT
# Excerpt: isothermal titration calorimetry on BT0366 (arabinan HTCS sensor), periplasmic domain
# [2] = molecular target: BACOVA_02740 (β-glucan HTCS sensor), periplasmic domain (Bacteroides ovatus, UniProt A0ABU3IRK2); details: 25 °C, HEPES pH 8.0; for Ka / (M^-1): single-site fit
# BACOVA_02740 (β-glucan HTCS sensor), periplasmic domain, sequence (A0ABU3IRK2 21-759 limits assumed): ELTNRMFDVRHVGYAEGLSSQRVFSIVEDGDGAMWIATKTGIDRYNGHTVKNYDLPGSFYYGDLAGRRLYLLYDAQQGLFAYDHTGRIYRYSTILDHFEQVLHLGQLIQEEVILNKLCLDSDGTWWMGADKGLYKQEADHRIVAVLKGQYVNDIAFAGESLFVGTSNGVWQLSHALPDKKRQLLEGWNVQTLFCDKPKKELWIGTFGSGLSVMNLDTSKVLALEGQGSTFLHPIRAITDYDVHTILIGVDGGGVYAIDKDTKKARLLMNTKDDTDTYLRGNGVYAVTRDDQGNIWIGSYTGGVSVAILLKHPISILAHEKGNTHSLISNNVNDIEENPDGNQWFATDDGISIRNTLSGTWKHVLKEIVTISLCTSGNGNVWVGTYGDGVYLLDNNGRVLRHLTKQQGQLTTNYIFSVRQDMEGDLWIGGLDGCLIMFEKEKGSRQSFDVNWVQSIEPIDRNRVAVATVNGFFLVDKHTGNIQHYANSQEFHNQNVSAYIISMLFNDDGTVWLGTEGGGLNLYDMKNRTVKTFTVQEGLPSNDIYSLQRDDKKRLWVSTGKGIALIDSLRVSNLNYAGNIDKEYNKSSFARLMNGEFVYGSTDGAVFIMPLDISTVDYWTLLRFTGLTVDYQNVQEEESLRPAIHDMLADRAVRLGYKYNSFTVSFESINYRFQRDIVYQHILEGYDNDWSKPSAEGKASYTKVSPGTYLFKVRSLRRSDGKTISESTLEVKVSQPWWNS
# Excerpt: isothermal titration calorimetry on BACOVA_02740 (β-glucan HTCS sensor), periplasmic domain
# [3] = molecular target: BACOVA_04394 (xylan HTCS sensor), periplasmic domain (Bacteroides ovatus, UniProt A0ABU3IPP8); details: 25 °C, HEPES pH 8.0; for Ka: binding seen, too low to fit (TLTF); for Ka / (M^-1): single-site fit
# BACOVA_04394 (xylan HTCS sensor), periplasmic domain, sequence (A0ABU3IPP8 21-805 limits assumed): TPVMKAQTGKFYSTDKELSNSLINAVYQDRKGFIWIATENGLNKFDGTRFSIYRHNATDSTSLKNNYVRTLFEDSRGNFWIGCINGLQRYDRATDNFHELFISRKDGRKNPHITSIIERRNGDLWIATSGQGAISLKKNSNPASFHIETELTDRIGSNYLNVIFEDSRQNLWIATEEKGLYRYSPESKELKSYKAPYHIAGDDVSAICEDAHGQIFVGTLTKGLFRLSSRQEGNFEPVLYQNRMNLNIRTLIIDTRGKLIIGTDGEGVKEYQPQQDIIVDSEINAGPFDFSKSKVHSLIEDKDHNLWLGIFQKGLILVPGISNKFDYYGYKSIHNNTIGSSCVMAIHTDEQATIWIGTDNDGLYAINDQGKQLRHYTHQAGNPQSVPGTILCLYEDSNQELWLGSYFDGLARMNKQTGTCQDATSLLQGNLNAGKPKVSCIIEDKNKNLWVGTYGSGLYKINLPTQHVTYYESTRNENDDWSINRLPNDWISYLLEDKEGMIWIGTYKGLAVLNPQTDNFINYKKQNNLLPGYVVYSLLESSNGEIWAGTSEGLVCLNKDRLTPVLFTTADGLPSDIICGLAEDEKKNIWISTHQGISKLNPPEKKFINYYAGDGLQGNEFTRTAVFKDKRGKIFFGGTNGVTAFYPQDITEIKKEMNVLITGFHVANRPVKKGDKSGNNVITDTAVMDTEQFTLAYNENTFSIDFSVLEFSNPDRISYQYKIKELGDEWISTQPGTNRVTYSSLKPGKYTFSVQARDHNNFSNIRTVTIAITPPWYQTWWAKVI
# Excerpt: isothermal titration calorimetry on BACOVA_04394 (xylan HTCS sensor), periplasmic domain
compound,measurement,setting,value
OC[C@@H]1O[C@@H](OC[C@@H]2O[C@@H](OC[C@@H]3O[C@@H](OC[C@@H]4O[C@@H](OC[C@@H]5O[C@@H](OC[C@@H]6O[C@@H](OC[C@@H]7OC(O)[C@H](O)[C@H]7O)[C@H](O)[C@H]6O)[C@H](O)[C@H]5O)[C@H](O)[C@H]4O)[C@H](O)[C@H]3O)[C@H](O)[C@H]2O)[C@H](O)[C@H]1O (stereo partly drawn) [Arabinoheptaose],Ka / (M^-1),[1],3.5E4±0.6
OC[C@@H]1O[C@@H](OC[C@@H]2O[C@@H](OC[C@@H]3O[C@@H](OC[C@@H]4O[C@@H](OC[C@@H]5O[C@@H](OC[C@@H]6OC(O)[C@H](O)[C@H]6O)[C@H](O)[C@H]5O)[C@H](O)[C@H]4O)[C@H](O)[C@H]3O)[C@H](O)[C@H]2O)[C@H](O)[C@H]1O (stereo partly drawn) [Arabinohexaose],Ka / (M^-1),[1],3.9E3±0.9
OC[C@@H]1O[C@@H](OC[C@@H]2O[C@@H](OC[C@@H]3O[C@@H](OC[C@@H]4O[C@@H](OC[C@@H]5O[C@@H](OC[C@@H]6O[C@@H](OC[C@@H]7O[C@@H](OC[C@@H]8OC(O)[C@H](O)[C@H]8O)[C@H](O)[C@H]7O)[C@H](O)[C@H]6O)[C@H](O)[C@H]5O)[C@H](O)[C@H]4O)[C@H](O)[C@H]3O)[C@H](O)[C@H]2O)[C@H](O)[C@H]1O (stereo partly drawn) [Arabinooctaose],Ka / (M^-1),[1],4.8E4±0.1
"OC[C@H]1O[C@@H](O[C@@H]2[C@@H](O)[C@H](O[C@H]3[C@H](O)[C@@H](O)[C@H](O[C@H]4[C@H](O)[C@@H](O)[C@H](O[C@H]5[C@H](O)[C@@H](O)C(O)O[C@@H]5CO)O[C@@H]4CO)O[C@@H]3CO)O[C@H](CO)[C@H]2O)[C@H](O)[C@@H](O)[C@@H]1O (stereo partly drawn) [Glucopentaose A (β3,4,4,4)]",Ka,"[2]; binding seen, too low to fit (TLTF)",∼5.0×10^2
"OC[C@H]1O[C@@H](O[C@H]2[C@H](O)[C@@H](O)[C@H](O[C@H]3[C@H](O)[C@@H](O)[C@H](O[C@H]4[C@H](O)[C@@H](CO)OC(O)[C@@H]4O)O[C@@H]3CO)O[C@@H]2CO)[C@H](O)[C@@H](O)[C@@H]1O (stereo partly drawn) [Glucotetraose B (β4,4,3)]",Ka / (M^-1),[2],2.5E3±1.3
"OC[C@H]1O[C@@H](O[C@H]2[C@H](O)[C@@H](O)[C@H](O[C@@H]3[C@@H](O)[C@H](O[C@H]4[C@H](O)[C@@H](O)C(O)O[C@@H]4CO)O[C@H](CO)[C@H]3O)O[C@@H]2CO)[C@H](O)[C@@H](O)[C@@H]1O (stereo partly drawn) [Glucotetraose C (β4,3,4)]",Ka / (M^-1),[2],3.2E4±0.7
"OC[C@H]1O[C@@H](O[C@H]2[C@H](O)[C@@H](O)[C@H](O[C@H]3[C@H](O)[C@@H](CO)OC(O)[C@@H]3O)O[C@@H]2CO)[C@H](O)[C@@H](O)[C@@H]1O (stereo partly drawn) [Glucotriose B (β4,3)]",Ka / (M^-1),[2],3.4E3±1.9
OC1OC[C@@H](O[C@@H]2OC[C@@H](O)[C@H](O)[C@H]2O)[C@H](O)[C@H]1O (stereo partly drawn) [Xylobiose],Ka,[3],∼5.0×10^2
OC1OC[C@@H](O[C@@H]2OC[C@@H](O[C@@H]3OC[C@@H](O[C@@H]4OC[C@@H](O[C@@H]5OC[C@@H](O[C@@H]6OC[C@@H](O)[C@H](O)[C@H]6O)[C@H](O)[C@H]5O)[C@H](O)[C@H]4O)[C@H](O)[C@H]3O)[C@H](O)[C@H]2O)[C@H](O)[C@H]1O (stereo partly drawn) [Xylohexaose],Ka,[3],∼5.0×10^2
OC1OC[C@@H](O[C@@H]2OC[C@@H](O[C@@H]3OC[C@@H](O[C@@H]4OC[C@@H](O[C@@H]5OC[C@@H](O)[C@H](O)[C@H]5O)[C@H](O)[C@H]4O)[C@H](O)[C@H]3O)[C@H](O)[C@H]2O)[C@H](O)[C@H]1O (stereo partly drawn) [Xylopentaose],Ka / (M^-1),[3],8.8E4±2.9
OC1OC[C@@H](O[C@@H]2OC[C@@H](O[C@@H]3OC[C@@H](O[C@@H]4OC[C@@H](O)[C@H](O)[C@H]4O)[C@H](O)[C@H]3O)[C@H](O)[C@H]2O)[C@H](O)[C@H]1O (stereo partly drawn) [Xylotetraose],Ka / (M^-1),[3],6.8E5±1.2
OC1OC[C@@H](O[C@@H]2OC[C@@H](O[C@@H]3OC[C@@H](O)[C@H](O)[C@H]3O)[C@H](O)[C@H]2O)[C@H](O)[C@H]1O (stereo partly drawn) [Xylotriose],Ka / (M^-1),[3],1.1E3±0.1
